# Data from patent publication US10801879B2, “Magnesium zinc oxide nanostructure modified biosensor and monitoring of response of cell population to an agent using the same” (Rutgers, The State University of New Jersey, priority 2015, dated 2020).
# Legend:
# S. cerevisiae (yeast) [1] = assay: MZOnano-QCM monitoring of antifungal drug effects on yeast; assay type: cell-based; conditions: drug introduced at 330 min after initial growth seeding
# Text: (§1) The result using various embodiments in this patent document accurately detects both drug effects in a rapid manner.
# (§2) This is due to the fact that the spectroscopic method relies on light absorption by the suspended cells, and dead yeast cells remain in suspension, thus contributing to the absorption.
# S. cerevisiae (yeast) [2] = assay: Spectrophotometry (OD600) monitoring of antifungal drug effects on yeast; assay type: cell-based; conditions: patent calls the identification incorrect
# Text: as §1, §2
# resistant E. coli = assay: MZOnano-QCM detection of antimicrobial resistance of resistant E. coli; assay type: cell-based; conditions: ampicillin-resistant cells, 256 μg/mL
# Procedure: (§3) The first example illustrates the application of a magnesium zinc oxide (MZO) nanostructure-modified quartz crystal microbalance (MZOnano-QCM) biosensor disclosed in this document with reference to FIGS. 1A and 1B to dynamically monitor antibiotic effects on sensitive and resistant E. coli cells. MZO-nanostructures were grown on a standard QCM top-electrode using metal-organic chemical-vapor deposition. ZnO and MZO nanostructured-films are chosen for their multi-functionality and biocompatibility. Their surface-wettability and morphology can be controlled, offering high-sensitivity to various biological/biochemical species. MZO can withstand a larger pH range than ZnO does. Combining advantages of MZO nanostructures with the dynamic impedance spectrum capability of QCM makes MZOnano-QCM a highly-sensitive dynamic biosensor well-suited for AMR detection. The growth of E. coli on ZnO and MZO nanostructures was determined by 90-minute incubation.
# (§4) FIGS. 4A-4D show the detection of antibiotic effects on E. coli using regular QCM, ZnOnano-QCM and MZOnano-QCM. The regular QCM failed detection due to low sensitivity while both ZnOnano- and MZOnano-QCM enable accurate detection of bacterial count during active growth though frequency shifts (Δf). The MZOnano-QCM offered four-fold higher sensitivity than ZnOnano-QCM. […]
# [3] = tested on: antibiotic-sensitive E. coli; assay: MZOnano-QCM detection of antibiotic effects on sensitive E. coli; assay type: cell-based; conditions: ampicillin-sensitive cells, 256 μg/mL
# Procedure: as §3, §4
# [4] = tested on: VP16-resistant derivative cell line (CEM-V1); assay: MZOnano-QCM 48-hour monitoring of drug resistant ALL (CEM-V1) cells; assay type: cell-based
# Text: (§5) The third example uses the drug VP16 (also known as etoposide, an anticancer agent), VP16-sensitive ALL cell line (CEM) and its VP16-resistant derivative cell line (CEM-V1) as a model for monitoring the effect of anticancer agents on the growth of cancer cells using the MZOnano-QCM sensor device, where the Mg composition x in MZO is 0.03.
# The same experiment can be repeated on drug resistant CEM leukemia cells (CEM-V1) using both the MZOnano-QCM sensor and the viability analyzer, and the monitoring can be conducted for 48 hours. […] The drug was added into the cell culture at 4 hours after the initial seeding of 4×10^5 cells. […] The various configurations used in the example in FIG. 11 are the same as those described with respect to FIG. 8, and the various configurations used in the example in FIG. 12 are the same as those described with respect to FIG. 9.
# [5] = tested on: VP16-sensitive ALL cell line (CEM); assay: MZOnano-QCM 48-hour monitoring of drug sensitive ALL (CEM) cells; assay type: cell-based
# Procedure: as §5
# For all of the experiments in this example, an initial seeding density of 4×10^5 cells in 2 mL of medium is used, the leukemia cell growth using the MZOnano-QCM is monitored dynamically for 48 hours. The drug (VP16) was introduced into the cell culture after 4 hours after the initial seeding. With reference to FIG. 7, the time-dependent frequency shift of the sensor for the entire 48-hour monitoring period of the drug sensitive CEM cells is shown. In the no-drug case, the frequency shift increases exponentially from 0-40 hours (indicating exponential cell accumulation on the sensing area) and then the frequency shift rate decreases showing saturation of the cell growth. In the case where the drug is introduced into the cell culture in the device, it is observed that the cells continue to grow after the drug has been introduced (4 hours after initial seeding), however, it is seen that the drug has taken effect 16 hours after the drug has been introduced.
# S. epidermidis = assay: Standard broth dilution assay (MIC), S. epidermidis; assay type: cell-based; conditions: Staphylococcus epidermidis
# P. aeruginosa = conditions: FIG. 15(b)
# Procedure: The sensor was placed inside an incubator at 37° C. while automatically measuring the acoustic spectrum every 15 minutes for 3 hours.
smiles,measurement,setting,value
C[C@@H]1[C@H](O)[C@@H](C)/C=C/C=C/C=C/C=C/C=C/C=C/C=C/[C@H](O[C@@H]2O[C@H](C)[C@@H](O)[C@H](N)[C@@H]2O)C[C@@H]2O[C@](O)(C[C@@H](O)C[C@@H](O)[C@H](O)CC[C@@H](O)C[C@@H](O)CC(=O)O[C@H]1C)C[C@H](O)[C@H]2C(=O)O [amphotericin],drug effect on yeast detected by sensor,S. cerevisiae (yeast) [1],cell-killing effects
same,drug effect on yeast as identified by OD600 method,S. cerevisiae (yeast) [2],fungi-static
CC1(C)S[C@@H]2[C@H](NC(=O)[C@H](N)c3ccccc3)C(=O)N2[C@H]1C(=O)O [ampicillin],Δf response upon treatment,resistant E. coli,continued increasing
same,time within which Δf declined upon treatment,[3],≤ 10 min
same,time within which Δf stopped increasing upon treatment,[3],≤ 5 min
"COc1cc([C@@H]2c3cc4c(cc3[C@@H](O[C@@H]3O[C@@H]5CO[C@@H](C)O[C@H]5[C@H](O)[C@H]3O)[C@H]3COC(=O)[C@H]23)OCO4)cc(OC)c1O [VP16, etoposide]",cell response (frequency shift trend) in the presence of the drug,[4]; 48 hours monitoring,continuous cell growth
same,time after addition of drug at which frequency shift started to decrease compared to no-drug control,[4]; drug added 4 hours after initial seeding of 4×10^5 cells,~15 h
same,cell response (frequency shift) after drug took effect,[5]; 20 hours to 48 hours,cells start to die (or stop to proliferate)
same,time after drug introduction at which drug has taken effect,[5]; drug introduced 4 hours after initial seeding of 4×10^5 cells,16 h
Clc1ccc(COC(Cn2ccnc2)c2ccc(Cl)cc2Cl)c(Cl)c1 (stereo not drawn) [miconazole],drug effect on yeast detected by sensor,S. cerevisiae (yeast) [1],growth inhibition effects
O=C(O)c1cn(C2CC2)c2cc(N3CCNCC3)c(F)cc2c1=O [ciprofloxacin],MIC,S. epidermidis,0.05 µg/mL
same,motional resistance in presence or absence of drug,P. aeruginosa,dramatically different
